Measurements: ChEMBL document CHEMBL3045367, “Preparation and testing of homocubyl amines as therapeutic NMDA receptor antagonists” (Med Chem Res, 2013)

Experiment: Displacement of [3H](+)-MK-801 from N-methyl D-aspartate receptor in Rattus norvegicus (rat) forebrain membranes after 90 min
Design: species or system Membrane

| IC50 [µM] | Ki [µM] | SMILES |
| --- | --- | --- |
| 152 | 111 | NC1C2C3CC4C2C2C1C3C42 (stereo not given) [bishomocubyl-10-amine] |
| 1.56 | 1.14 | CC12CC3CC(C)(C1)CC(N)(C3)C2 [MEMANTINE] |
| 843 | 615 | NC1C2C3C4C1C1C2C3C41 (stereo not given) [Homocubyl-9-amine] |
| 259 | 189 | NC12C3C4C5C3C1C5C42 (stereo not given) [Cubylamine] |
| 89 | 65 | NC1C2C3CC4C5CC(C1C53)C42 (stereo not given) [Trishomocubyl-4-amine] |
